In PMC8766551, “Amino acid residue at position 188 determines the UV-sensitive bistable property of vertebrate non-visual opsin Opn5” (Communications Biology, 2022):
Substitutions are numbered along the chain they refer to.

Columns and labels:
Assay type in all cases: binding
Xenopus tropicalis Opn5m [1] = target: T1, Xenopus tropicalis Opn5m (Xenopus tropicalis, UniProt A0A8J0QRX8, W163F); assay: reconstitution, purification, HPLC of retinal oximes; details: covalent; 40 uM 11-cis retinal added to collected cell membranes, 4 °C, 24 h, dark; pH 6.5; isomer composition, no affinity
T1 construct: gene opn5; 21 residues truncated from the C-terminus; expressed in HEK293S cells; purified in DDM on Rho1D4-agarose
T1 sequence (A0A8J0QRX8 1-322 W163F): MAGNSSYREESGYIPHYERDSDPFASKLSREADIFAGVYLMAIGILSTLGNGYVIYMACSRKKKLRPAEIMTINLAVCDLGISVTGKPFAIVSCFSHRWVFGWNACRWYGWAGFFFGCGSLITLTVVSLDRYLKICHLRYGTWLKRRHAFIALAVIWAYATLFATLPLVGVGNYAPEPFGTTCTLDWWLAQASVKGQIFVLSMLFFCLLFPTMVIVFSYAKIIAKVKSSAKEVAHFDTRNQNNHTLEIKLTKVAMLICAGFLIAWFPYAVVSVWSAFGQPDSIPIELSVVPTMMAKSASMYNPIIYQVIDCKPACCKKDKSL

Xenopus tropicalis Opn5m [2] = target: T2, Xenopus tropicalis Opn5m (Xenopus tropicalis, UniProt A0A8J0QRX8); assay: as above; details: covalent; 40 uM 11-cis retinal added to collected cell membranes, 4 °C, 24 h, dark; pH 6.5; isomer composition, no affinity
T2 construct: gene opn5; 21 residues truncated from the C-terminus; expressed in HEK293S cells; purified in DDM on Rho1D4-agarose
T2 sequence (A0A8J0QRX8 1-322): T1 sequence (A0A8J0QRX8 1-322 W163F) with F163W

Xenopus tropicalis Opn5m [3] = target: T3, Xenopus tropicalis Opn5m (Xenopus tropicalis, UniProt A0A8J0QRX8, L208F); assay: as above; details: covalent; 40 uM 11-cis retinal added to collected cell membranes, 4 °C, 24 h, dark; pH 6.5; isomer composition, no affinity
T3 construct: gene opn5; 21 residues truncated from the C-terminus; expressed in HEK293S cells; purified in DDM on Rho1D4-agarose
T3 sequence (A0A8J0QRX8 1-322 L208F): T1 sequence (A0A8J0QRX8 1-322 W163F) with F163W, L208F

Xenopus tropicalis Opn5m [4] = target: T4, Xenopus tropicalis Opn5m (Xenopus tropicalis, UniProt A0A8J0QRX8, T184M); assay: absorption spectrum of purified reconstituted pigment, difference spectrum; details: covalent; all-trans retinal added, dark versus yellow light (>500 nm), 0 °C, pH 6.5; spectral value, no affinity
T4 construct: gene opn5; 21 residues truncated from the C-terminus; expressed in HEK293S cells; purified in DDM on Rho1D4-agarose
T4 sequence (A0A8J0QRX8 1-322 T184M): T1 sequence (A0A8J0QRX8 1-322 W163F) with F163W, T184M

Xenopus tropicalis Opn5m [5] = target: T5, Xenopus tropicalis Opn5m (Xenopus tropicalis, UniProt A0A8J0QRX8, T184N); assay: as above; details: covalent; all-trans retinal added, dark versus yellow light (>500 nm), 0 °C, pH 6.5; spectral value, no affinity
T5 construct: gene opn5; 21 residues truncated from the C-terminus; expressed in HEK293S cells; purified in DDM on Rho1D4-agarose
T5 sequence (A0A8J0QRX8 1-322 T184N): T1 sequence (A0A8J0QRX8 1-322 W163F) with F163W, T184N

Xenopus tropicalis Opn5m [6] = target: T3, Xenopus tropicalis Opn5m; assay: as above; details: covalent; 40 uM all-trans retinal added to collected cell membranes, dark versus yellow light (>500 nm), 0 °C, pH 6.5; spectral value, no affinity
Xenopus tropicalis Opn5m [7] = target: T2, Xenopus tropicalis Opn5m; assay: as above; details: covalent; all-trans retinal added, dark versus yellow light (>500 nm), 0 °C, pH 6.5; spectral value, no affinity
Xenopus tropicalis Opn5m [8] = target: T6, Xenopus tropicalis Opn5m (Xenopus tropicalis, UniProt A0A8J0QRX8, T184C); assay: as above; details: covalent; all-trans retinal added, dark versus yellow light (>500 nm), 0 °C, pH 6.5; spectral value, no affinity
T6 construct: gene opn5; 21 residues truncated from the C-terminus; expressed in HEK293S cells; purified in DDM on Rho1D4-agarose
T6 sequence (A0A8J0QRX8 1-322 T184C): T1 sequence (A0A8J0QRX8 1-322 W163F) with F163W, T184C

Xenopus tropicalis Opn5m [9] = target: T7, Xenopus tropicalis Opn5m (Xenopus tropicalis, UniProt A0A8J0QRX8, T184G); assay: as above; details: covalent; all-trans retinal added, dark versus yellow light (>500 nm), 0 °C, pH 6.5; spectral value, no affinity
T7 construct: gene opn5; 21 residues truncated from the C-terminus; expressed in HEK293S cells; purified in DDM on Rho1D4-agarose
T7 sequence (A0A8J0QRX8 1-322 T184G): T1 sequence (A0A8J0QRX8 1-322 W163F) with F163W, T184G

Xenopus tropicalis Opn5m [10] = target: T8, Xenopus tropicalis Opn5m (Xenopus tropicalis, UniProt A0A8J0QRX8, T184Q); assay: as above; details: covalent; all-trans retinal added, dark versus yellow light (>500 nm), 0 °C, pH 6.5; spectral value, no affinity
T8 construct: gene opn5; 21 residues truncated from the C-terminus; expressed in HEK293S cells; purified in DDM on Rho1D4-agarose
T8 sequence (A0A8J0QRX8 1-322 T184Q): T1 sequence (A0A8J0QRX8 1-322 W163F) with F163W, T184Q

Xenopus tropicalis Opn5m [11] = target: T9, Xenopus tropicalis Opn5m (Xenopus tropicalis, UniProt A0A8J0QRX8, T184A); assay: as above; details: covalent; all-trans retinal added, dark versus yellow light (>500 nm), 0 °C, pH 6.5; spectral value, no affinity
T9 construct: gene opn5; 21 residues truncated from the C-terminus; expressed in HEK293S cells; purified in DDM on Rho1D4-agarose
T9 sequence (A0A8J0QRX8 1-322 T184A): T1 sequence (A0A8J0QRX8 1-322 W163F) with F163W, T184A

Xenopus tropicalis Opn5m [12] = target: T10, Xenopus tropicalis Opn5m (Xenopus tropicalis, UniProt A0A8J0QRX8, T184S); assay: as above; details: covalent; all-trans retinal added, dark versus yellow light (>500 nm), 0 °C, pH 6.5; spectral value, no affinity
T10 construct: gene opn5; 21 residues truncated from the C-terminus; expressed in HEK293S cells; purified in DDM on Rho1D4-agarose
T10 sequence (A0A8J0QRX8 1-322 T184S): T1 sequence (A0A8J0QRX8 1-322 W163F) with F163W, T184S

SMILES	% of bound retinal as 11-cis isomer (Xenopus tropicalis Opn5m [1]) [%]	% of bound retinal as 11-cis isomer (Xenopus tropicalis Opn5m [2]) [%]	% of bound retinal as 11-cis isomer (Xenopus tropicalis Opn5m [3]) [%]	λmax (Xenopus tropicalis Opn5m [4]) [nm]	λmax (Xenopus tropicalis Opn5m [5]) [nm]	λmax (Xenopus tropicalis Opn5m [6]) [nm]	λmax (Xenopus tropicalis Opn5m [7]) [nm]	λmax (Xenopus tropicalis Opn5m [8]) [nm]	λmax (Xenopus tropicalis Opn5m [9]) [nm]	λmax (Xenopus tropicalis Opn5m [10]) [nm]	λmax (Xenopus tropicalis Opn5m [11]) [nm]	λmax (Xenopus tropicalis Opn5m [12]) [nm]
CC1=C(/C=C/C(C)=C/C=C\C(C)=C\C=O)C(C)(C)CCC1 [11-cis retinal]	84	91	88									
CC1=C(/C=C/C(C)=C/C=C/C(C)=C/C=O)C(C)(C)CCC1 [all-trans retinal]				467	460	475	474	470	477	483	481	478
